{
  "source": "patent US20150216850A1",
  "about": "(priority 2012, published 2015)",
  "origin": "cited, not measured here",
  "key": {"[1]": {"system": "Huntington's disease patients"}, "[2]": {"system": "Huntington's disease patients", "details": "twice-daily doses of 45 mg over 12 weeks"}, "[3]": {"system": "patients with HD"}},
  "data": [
    {"smiles": "CCCN1CCC(c2cccc(S(C)(=O)=O)c2)CC1", "note": "[pridopidine]", "values": [
      {"measurement": "tertiary endpoint UHDRS-TMS and individual items within the mMS (gait, dysarthria)", "setting": "[1]; 45 mg daily or 90 mg daily for 6 months", "value": "statistically significant effect"},
      {"measurement": "primary endpoint: effect on subset of motor symptoms defined in the mMS", "setting": "[1]; 45 mg daily or 90 mg daily, at 26 weeks", "value": "not met"},
      {"measurement": "effect on total motor function", "setting": "[2]", "value": "significant effect"},
      {"measurement": "symptomatic relief (hand movements, gait and balance)", "setting": "[3]", "value": "significant symptomatic relief"}
    ]}
  ]
}
